Results reported in article PMC9882114 (bioRxiv, 2024).

Columns and labels:
Assay type in all cases: biochemical
iNicSnFR12 [1] = details: read-out: EC50, μM (Figure 1B, 1C, purified sensors); n = 3
iNicSnFR11 = assay: Fluorescence dose-response relations of nicotinic drugs at purified iNicSnFR11; details: purified iNicSnFR11 100 nM, 3×PBS pH 7.40, Hill fit
iNicSnFR12 [2] = assay: Fluorescence dose-response relations of nicotinic drugs at purified iNicSnFR12
iNicSnFR12-S467R = assay: Nicotine-induced fluorescence increase of purified iNicSnFR12-S467R, Hill fit; details: read-out: EC50 (nicotine-induced fluorescence, iNicSnFR12-S467R); SEM, n = 3

Row | SMILES | EC50 (iNicSnFR12 [1]) [µM] | EC50 (iNicSnFR11) [µM] | expected activation at iNicSnFR12 (iNicSnFR12 [2]; [choline] 1 μM as in 10% rat serum) | expected activation at iNicSnFR12 (iNicSnFR12 [2]; [choline] 2.5 μM as in 25% human serum) [%] | EC50 (iNicSnFR12-S467R) [µM]
1 | C[N+](C)(C)CCO [choline] | ≥ 100 | ~170 | at most 1% | ≤ 2.5 | 
2 | CN1CCC[C@H]1c1cccnc1 [nicotine] |  |  |  |  | 25.6
